Paper PMC9148072, “Design, Cytotoxicity and Antiproliferative Activity of 4-Amino-5-methyl-thieno[2,3-d]pyrimidine-6-carboxylates against MFC-7 and MDA-MB-231 Breast Cancer Cell Lines” (Molecules, 2022)
In brackets after ≈: the same amount, converted by molar mass. Like-named read-outs stand apart in the source and are kept apart here.

What was measured:
MCF-7 cell line = experiment: MTT antiproliferative assay, MCF-7; type: cell-based, human; details: for IC50: Homo sapiens, MCF7
Experimental: (§1) The compounds were studied for antiproliferative activity by standard MTT dye-reduction assay. Cell cultures from MCF-10A, MCF-7 and MDAMB-231 cell lines were incubated for 72 h in the presence of the tested substances in a wide range of concentrations. At the MCF-10A and MDA-MB-231 cell lines, compound 4 was applied in the range from 0.5 to 100 µg/mL, and all others from 4 to 1000 µg/mL.
The MCF-7 cell line was treated with compounds 2, 3 and 4 at concentrations from 0.5 to 100 µg/mL, and all others from 4 to 1000 µg/mL. The antiproliferative activity expressed in % relative to the negative control (untreated cells accepted as a 100% viable or 0% antiproliferative activity) was determined and shown on Figure 6.
(§2) All breast cell lines (MCF-10A, MCF-7 and MDA-MB-231) were purchased from the American Type Culture Collection—ATCC (Manassas, VA, USA). The MCF-7 and MDA-MB-231 were cultivated in Dulbecco’s Modified Eagle’s Medium (DMEM) supplemented with 10% fetal bovine serum (FBS), 1% sodium pyruvate, 1% MEM nonessential amino acids (NEAA) without antibiotics. The nontumorigenic breast cell line (MCF-10A) was cultivated in DMEM medium (Sigma-Aldrich, St. Louis, MO, USA) supplemented with 10% FBS, 1% sodium pyruvate, 1% nonessential amino acids (NEAA), 20 ng/mL human epithelia growth factor (hEGF), 10 μg/mL insulin, and 0.5 μg/mL hydrocortisone without antibiotics. All cell lines were maintained in a humidified atmosphere with 5% CO2 at 37 °C.
(§3) Using the standard MTT dye-reduction assay, described by Mosmann the antiproliferative activity was tested. The method is based on the metabolism of the tetrazolium salt MTT to insoluble formazan. The formazan absorption was registered using a microplate reader at λ = 540 nm. The measured absorption is an indicator of cell viability and metabolic activity. Antiproliferative activities were expressed as IC50 values (concentrations required for 50% inhibition of cell growth), calculated using nonlinear regression analysis (GraphPad Software, San Diego, CA, USA).

MCF-7 = details: results published earlier, read-out: IC50 (MCF-7) of lead compounds A and B; cited from earlier work
MDA-MB-231 = details: results published earlier, read-out: IC50 (MDA-MB-231) of lead compounds A and B; cited from earlier work
MDA-MB-231 cell line = experiment: MTT antiproliferative assay, MDA-MB-231; type: cell-based, human; details: for Selective Index MDA-MB-231: SI = IC50 of MCF-10A/IC50 of MDA-MB-231; for IC50: MDA-MB-231, 72 h, MTT
Experimental: as §1, §2, §3

[1] = 3T3 Neutral Red Uptake (NRU) cytotoxicity test; type: cell-based, mouse; details: mouse, BALB/3T3 clone A31 cells; for CC50 at 24 h: BALB 3T3, 24 h, no irradiation, read-out: CC50 of Mean ± SD, Cytotoxicity
[2] = 3T3 NRU phototoxicity test (irradiated); type: cell-based, mouse; details: mouse, BALB/3T3 clone A31 cells; BALB 3T3, irradiated 2.4 J/cm2, then 24 h; read-out: CC50 of Mean ± SD, Phototoxicity
Text: (§4) Some organic compounds exposed to sunlight can be converted into phototoxins as a result of light-induced changes in energy state or degradation of the molecule. The estimation of phototoxicity can serve as an indicator of the photostability of the studied thienopyrimidines when irradiated with UV light and as evidence that their effect on cells is only due to the cytotoxicity and not to phototoxicity. The compounds were studied for cytotoxicity by the 3T3 Neutral Red […] (NRU) phototoxicity test based on a comparison of the cytotoxicity of a chemical when tested in the presence and absence of noncytotoxic exposure to UVA/vis light. The cells were incubated with the test substances at a variable concentration: for compound 4 from 0.5 to 100 μg/mL, and for all the rest from 15 to 4000 μg/mL for 24 h.
(§5) The light source used was a light emitting diode (LED) matrix, an artificial solar light simulator Helios-iO, model LE-9ND55-H—5500K (SERIC Ltd., Tokyo, Japan).
(§6) BALB/3T3 cells were cultured in 75 cm^2 tissue-culture flasks in DMEM, 10% FBS, 2 mM glutamine and antibiotics (penicillin 100 U/mL and streptomycin 100 µg/mL) at 37 °C, 5% CO2 and 90% relative humidity. Cytotoxicity/phototoxicity was assessed by validated BALB/3T3 clone A31 Neutral Red Uptake Assay (3T3 NRU test). Briefly, cells were plated in a 96-well microtiter plate at a density of 1 × 10^4 cells/100 µL/well and were incubated for 24 h. A wide concentration range of the test compounds was applied. In phototoxicity tests, 96-well plates were irradiated with dose 2.4 J/cm^2 and the cells were incubated for additional 24 h. After treatment with Neutral Red medium, washing and treatment with the Ethanol/Acetic acid solution, the absorption was measured on a TECAN microplate reader (TECAN, Grödig, Austria) at wavelength 540 nm.
(§7) Cytotoxicity/phototoxicity were expressed as CC50/PC50 values (concentrations required for 50% cytotoxicity/phototoxicity), calculated using nonlinear regression analysis (GraphPad Software, Prism 8.0.2 (263), San Diego, CA, USA). The CC50 values can be used to calculate the PIF (photoirritancy factor) for each test substance, according to the following formula:PIF = Cytotoxicity (CC50)/Phototoxicity (PC50)(6)

BALB 3T3 cells = experiment: 3T3 NRU phototoxicity test (irradiated); type: cell-based, mouse; details: CC50/PC50; PIF < 2 not phototoxic, ≥ 2 and < 5 probable phototoxicity, ≥ 5 phototoxic
Text: as §4, §5, §6, §7

MCF-10A cell line = experiment: MTT antiproliferative assay, MCF-10A; type: cell-based; details: Homo sapiens, 72 h
Experimental: as §1
In order to determine antitumor activity, as a reliable model and a control we used the MCF-10A cell line (normal human mammary epithelial cells).
as §2, §3

Aurora B kinase = target: Aurora B kinase; design: method as in PMID 21778056; details: Figure 1; read-out: Aur B IC50; cited from earlier work
KDR = system: KDR; design: method as in doi:10.1016/j.medidd.2019.100009; details: Figure 1; cited from earlier work
EGFR = system: EGFR; design: method as in PMID 31051400; details: cited from earlier work
Tie-2 = system: Tie-2; design: method as in PMID 19854647; details: Figure 1; read-out: Tie-2 cells IC50; cited from earlier work
VEGER = system: VEGER; design: method as in PMID 30343204; details: Figure 1; cited from earlier work
FGFR1 = details: Figure 1; cited from earlier work
ABC efflux pumps = system: ABC efflux pumps; design: method as in PMID 19783433; details: Figure 1; read-out: EC50 in the daunorubicin accumulation assay; cited from earlier work
[3] = read-out: IC50 Antiproliferative Activity MCF-10A (converted)
[4] = read-out: IC50 ± SD Antiproliferative Activity MCF-10A
[5] = MCF-7, 72 h, MTT, read-out: IC50 Antiproliferative Activity MCF-7 in µM (converted)
[6] = MCF-7, 72 h, MTT, read-out: IC50 ± SD Antiproliferative Activity MCF-7
[7] = Homo sapiens, read-out: IC50 Antiproliferative Activity MDA-MB-231 in µM (converted)
[8] = Homo sapiens, read-out: IC50 ± SD Antiproliferative Activity MDA-MB-231

SMILES: CCOC(=O)c1sc2nc(CCn3c(=N)n(CCc4nc5sc(C(=O)OC)c(C)c5c(=O)[nH]4)c4ccccc43)[nH]c(=O)c2c1C [A]
- IC50 (MCF-7 cell line; read-out: pCI50 in MCF-7 test (converted)): 0.0741 µM
- IC50 (MCF-7): 0.074 µM
- IC50 (MDA-MB-231): 0.16 µM

SMILES: CCOC(=O)c1sc2nc(CCn3c(=N)[nH]c4ccccc43)[nH]c(=O)c2c1C [B]
- IC50 (MCF-7): 0.21 µM
- IC50 (MDA-MB-231): 0.32 µM

SMILES: N.N.[Cl][Pt][Cl] [Cisplatin, reference compound]
- Selective Index MCF-7 (MCF-7 cell line; SI = IC50 of MCF-10A/IC50 of MCF-7): 2.36
- Selective Index MDA-MB-231 (MDA-MB-231 cell line): 25

SMILES: CCOC(=O)c1sc2nc(Cc3ccccc3)nc(N)c2c1C [Compound 2, Ethyl 4-Amino-2-benzyl-5-methyl-thieno[2,3-d]pyrimidine-6-carboxylate]
- CC50 at 24 h [1]: 1210 ± 103 µg/mL (≈ 3700 µM)
- CC50 at 24 h [2]: 632 ± 35.6 µg/mL (≈ 1930 µM)
- PIF (Photoirritancy factor) (BALB 3T3 cells): 1.9
- IC50 (MCF-10A cell line; [3]): 210 µM
- IC50 (MCF-10A cell line; [4]): 67.8 ± 9.1 µg/mL
- IC50 (MCF-7 cell line; [5]): 13 µM
- IC50 (MCF-7 cell line; [6]): 4.3 ± 0.11 µg/mL
- IC50 (MDA-MB-231 cell line; [7]): 56 µM
- IC50 (MDA-MB-231 cell line; [8]): 18.3 ± 1.58 µg/mL
- Selective Index MDA-MB-231 (MDA-MB-231 cell line): 3.7
- melting point: 159 to 161 °C

SMILES: CCOC(=O)c1sc2nc(Cc3ccc([N+](=O)[O-])cc3)nc(N)c2c1C [Compound 3, Ethyl 4-Amino-5-methyl-2-(4-nitrobenzyl) Thieno [2,3-d] Pyrimidine-6-carboxylate]
- CC50 at 24 h [1]: 1160 ± 57.8 µg/mL (≈ 3100 µM)
- CC50 at 24 h [2]: 578 ± 58.7 µg/mL (≈ 1550 µM)
- IC50 (MCF-10A cell line; [3]): 440 µM
- IC50 (MCF-10A cell line; [4]): 165 ± 8.81 µg/mL
- IC50 (MCF-7 cell line; [5]): 23 µM
- IC50 (MCF-7 cell line; [6]): 8.58 ± 0.55 µg/mL
- IC50 (MDA-MB-231 cell line; [7]): 250 µM
- IC50 (MDA-MB-231 cell line; [8]): 98.2 ± 4.73 µg/mL
- IC50 (MDA-MB-231 cell line; read-out: IC50 Antiproliferative Activity MDA-MB-231 in µM (converted)): 260 µM

SMILES: CCOC(=O)c1sc2nc(-c3cc(OC)c(OC)c(OC)c3)nc(N)c2c1C [Compound 4, Ethyl 4-Amino-5-methyl-2-(3,4,5-trimethoxyphenyl)thieno [2,3-d]Pyrimidine-6-carboxylate]
- CC50 at 24 h [1]: 8.37 ± 0.6 µg/mL (≈ 20.7 µM)
- CC50 at 24 h [2]: 11.8 ± 0.8 µg/mL (≈ 29.4 µM)
- PIF (Photoirritancy factor) (BALB 3T3 cells): 0.7
- IC50 (MCF-10A cell line; [3]): 6.8 µM
- IC50 (MCF-10A cell line; [4]): 2.74 ± 0.13 µg/mL
- IC50 (MCF-7 cell line; [5]): 5 µM
- IC50 (MCF-7 cell line; [6]): 2.01 ± 0.07 µg/mL
- IC50 (MDA-MB-231 cell line; [7]): 16 µM
- IC50 (MDA-MB-231 cell line; [8]): 6.43 ± 0.95 µg/mL

SMILES: CCOC(=O)c1sc2nc(-c3ccccn3)nc(N)c2c1C [Compound 7, Ethyl 4-Amino-5-methyl-2-(pyridin—2-yl) Thieno[2,3-d]pyrimidine-6-carboxylate]
- CC50 at 24 h [1]: 2750 ± 64.3 µg/mL (≈ 8760 µM)
- IC50 at 24 h ([1]; BALB 3T3, converted from µg/mL, read-out: IC50 cytotoxicity against BALB 3T3): 8800 µM
- CC50 at 24 h [2]: 2550 ± 75.1 µg/mL (≈ 8120 µM)
- PIF (Photoirritancy factor) (BALB 3T3 cells): 1.08
- IC50 (MCF-10A cell line; [4]): > 1000 µg/mL
- IC50 (MCF-7 cell line; [6]): > 1000 µg/mL
- IC50 (MDA-MB-231 cell line; [8]): > 1000 µg/mL
- melting point: 262 to 264 °C

SMILES: CCOC(=O)c1sc2nc(-c3cccnc3)nc(N)c2c1C [Compound 8, Ethyl 4-Amino-5-methyl-2-(pyridin-3-yl)thieno [2,3-d]Pyrimidine-6-carboxylate]
- melting point: 241 to 242 °C

SMILES: Cc1ccccc1NC(=O)NCc1cccc(NC(=O)c2csc3ncnc(N)c23)c1 [III]
- IC50 (Aurora B kinase): 0.0038 µM

SMILES: Cc1sc2ncnc(N)c2c1C(=O)Nc1ccc(NC(=O)Nc2ccccc2)cc1 [II]
- IC50 (Aurora B kinase): 0.0002 µM

SMILES: Cc1cccc(NC(=O)Nc2ccc(-c3csc4ncnc(N)c34)cc2)c1 [IV]
- IC50 (KDR): 0.003 µM

SMILES: C=CC(=O)N1CCc2c(sc3ncnc(NC(CO)c4ccccc4)c23)C1 (stereo not shown) [IX]
- IC50 (EGFR; Figure 1): 0.008 µM

SMILES: Cn1cnc(-c2cccc(NC(=O)Nc3cc(C(F)(F)F)ccc3F)c2)c1-c1cc2c(N)ncnc2s1 [I]
- IC50 (Tie-2): 0.07 µM

SMILES: CC(=O)c1cccc(NC(=O)Nc2ccc(Nc3ncnc4sc5c(c34)CCCC5)cc2)c1 [VIII]
- IC50 (VEGER): 1.5 µM

SMILES: Oc1cccc(Nc2ncnc3sc(-c4ccccc4)cc23)c1 [VII]
- IC50 (FGFR1): 0.16 µM

SMILES: Oc1cccc(Nc2ncnc3scc(-c4ccccc4)c23)c1 [VI]
- IC50 (FGFR1): 0.18 µM

SMILES: Nc1nc(SCCc2ccccc2)nc2sc3c(c12)CCCC3 [V]
- EC50 (ABC efflux pumps): 1.02 µM

SMILES: Fc1ccccc1Nc1ncnc2sc3c(c12)CCCC3 [X]
- EGFR/HER2 inhibitory activity IC50 (in words) (EGFR): in the nanomolar range
